Assay results: US20030187007A1, “Inhibitors of protein kinase for the treatment of disease” (priority 2001, published 2003)

Tests used:
KM12 = assay: In vitro tumor cell efficacy test (SRB), Colon Cancer; format: cell-based; conditions: Homo sapiens, 72 hours
[1] = tested on: different cancer cell lines; assay: In vitro tumor cell efficacy test (SRB), mean over all cell lines; format: cell-based; conditions: Mean over all cell lines of the table
COLO 205 = assay: In vitro tumor cell efficacy test (SRB), Colon Cancer; format: cell-based; conditions: Homo sapiens, COLO 205, Colon Cancer, 72 hours
UACC-62 = assay: In vitro tumor cell efficacy test (SRB), Melonoma; format: cell-based; conditions: Homo sapiens, UACC-62, Melonoma, 72 hours
SW-620 = assay: In vitro tumor cell efficacy test (SRB), Colon Cancer; format: cell-based; conditions: Homo sapiens, SW-620, Colon Cancer, 72 hours
T-47D = assay: In vitro tumor cell efficacy test (SRB), Breast Cancer; format: cell-based; conditions: Homo sapiens, T47D, 72 hours
OVCAR-5 = assay: In vitro tumor cell efficacy test (SRB), Ovarian Cancer; format: cell-based; conditions: Homo sapiens; OVCAR-5, Ovarian Cancer, 72 hours
SK-MEL-2 = assay: In vitro tumor cell efficacy test (SRB), Melonoma; format: cell-based; conditions: Homo sapiens, SK-MEL-2, Melonoma, 72 hours
OVCAR-8 = assay: In vitro tumor cell efficacy test (SRB), Ovarian Cancer; format: cell-based; conditions: Homo sapiens, OVCAR-8, Ovarian Cancer, 72 hours
SF-295 = assay: In vitro tumor cell efficacy test (SRB), CNS Cancer; format: cell-based; conditions: Homo sapiens, SF-295, CNS Cancer, 72 hours
SF-268 = assay: as above; format: cell-based; conditions: Homo sapiens, SF-268, CNS Cancer, 72 hours
MDA-N = assay: In vitro tumor cell efficacy test (SRB), Breast Cancer; format: cell-based; conditions: Homo sapiens, 72 hours
HCT-116 = assay: In vitro tumor cell efficacy test (SRB), Colon Cancer; format: cell-based; conditions: Homo sapiens; HCT-116, Colon Cancer, 72 hours
UACC-257 = assay: In vitro tumor cell efficacy test (SRB), Melonoma; format: cell-based; conditions: Homo sapiens, UACC-257, Melonoma, 72 hours
LOX IMVI = assay: In vitro tumor cell efficacy test (SRB), Melonoma; format: cell-based; conditions: Homo sapiens, 72 hours
ACHN = assay: In vitro tumor cell efficacy test (SRB), Renal Cancer; format: cell-based; conditions: Homo sapiens, 72 hours
OVCAR-3 = assay: In vitro tumor cell efficacy test (SRB), Ovarian Cancer; conditions: Homo sapiens, OVCAR-3, 72 h
RPMI-8226 = assay: In vitro tumor cell efficacy test (SRB), Leukemia; format: cell-based; conditions: Homo sapiens, RPMI-8226, Leukemia, 72 hours
NCI-H522 = format: cell-based; conditions: Homo sapiens; NCI-H522, Non-Small Cell Lung Cancer, 72 hours
panel of protein kinases = assay: Specificity studies, overall statement; format: biochemical
Experimental: The assays of kinases were determined by monitoring the phosphorylation of appropriate substrates. The assay mixture contained 0.1 mM cold ATP ^33P-γ-ATP (2000-4000 cpm/μL), 0.1 mM substrate, 1 mM DTT, and 10 mM MgCl2 in 100 mM HEPES buffer pH 7.4. The assay mixture, along with inhibitor and kinase enzyme (0.3-0.4 U/mL), was mixed together in a microtiter 96-well plate in a final volume of 40 μL, sealed and incbated for 1 hour at 30° C. Following incubation, a 15 μL aliquot was added to a Whatman P81 filtration plate containing 100 μL 0.5% phosphoric acid. This mixture was allowed to stand for 5 minutes prior to filtration on a vacuum manifold. The filter plate was washed with 5 successive additions of 300 μL 0.5% phosporic acid. The filtration plate was air dried for 10 minutes before sealing the bottom. After addition of scintillation fluid to the sealed plate, phosphorylated substrate was quantified in a scintillation counter.

SNB-75 = assay: In vitro tumor cell efficacy test (SRB), CNS Cancer; format: cell-based; conditions: Homo sapiens, SNB-75, CNS Cancer, 72 hours
MALME-3M = assay: In vitro tumor cell efficacy test (SRB), Melonoma; format: cell-based; conditions: Homo sapiens, 72 hours
SN12C = assay: In vitro tumor cell efficacy test (SRB), Renal Cancer; format: cell-based; conditions: Homo sapiens, 72 hours
HOP-92 = format: cell-based; conditions: Homo sapiens, HOP-92, Non-Small Cell Lung Cancer, 72 hours
SK-MEL-5 = assay: In vitro tumor cell efficacy test (SRB), Melonoma; format: cell-based; conditions: Homo sapiens, SK-MEL-5, Melonoma, 72 hours
TK-10 = assay: In vitro tumor cell efficacy test (SRB), Renal Cancer; format: cell-based; conditions: Homo sapiens; TK-10, Renal Cancer, 72 hours
[2] = read-out: Log (LC50) (the source's name) (converted)

Work on `Nc1nccc(-c2cc(-c3ccc(O)cc3)ccc2O)n1` [3-(2-Amino-pyrimidin-4-yl)-biphenyl-4,4′-diol] yielded a GI50 (KM12) of 0.126 µM, a CC50 (KM12; [2]) of over 100 µM and a CC50 ([1]; read-out: Log (LC50) (M), Mean (converted)) of over 0.0001 M. It also gave a GI50 ([1]; read-out: log (GI50) (M), Mean (converted)) of 3.16e-07 M, a GI50 (COLO 205) of 7.94 µM and a CC50 (COLO 205; [2]) of over 100 µM. For the same compound, the GI50 (UACC-62) was 0.2 µM, the CC50 (UACC-62; [2]) was 12.6 µM and the GI50 (SW-620) was 0.316 µM. The CC50 (SW-620; [2]) was over 100 µM, the GI50 (T-47D) was 2 µM and the CC50 (T-47D; [2]) was 50.1 µM. For the same compound, the GI50 (OVCAR-5) was 2 µM, the LC50 (50% lethal concentration) (OVCAR-5) was over 100 µM and the GI50 (SK-MEL-2) was 0.2 µM. For the same compound, the CC50 (SK-MEL-2; [2]) was 3.16 µM, the GI50 (OVCAR-8) was 0.2 µM and the CC50 (OVCAR-8; [2]) was over 100 µM. For the same compound, the GI50 (SF-295) was 0.251 µM, the CC50 (SF-295; [2]) was over 100 µM and the GI50 (SF-268) was 0.251 µM. It also gave a CC50 (SF-268; [2]) of over 100 µM, a GI50 (MDA-N) of 0.251 µM and a CC50 (MDA-N; [2]) of over 100 µM. It also gave a GI50 (HCT-116) of 0.158 µM, an LC50 (concentration killing 50% of cells) (HCT-116) of over 100 µM and a GI50 (UACC-257) of 1.26 µM. It also gave a CC50 (UACC-257; [2]) of over 100 µM, a GI50 (LOX IMVI) of 0.2 µM and a CC50 (LOX IMVI; [2]) of over 100 µM. For the same compound, the GI50 (ACHN) was 0.251 µM, the CC50 (ACHN; [2]) was over 100 µM and the CC50 (OVCAR-3; read-out: Log (LC50) (M) (converted)) was over 0.0001 M. The GI50 (OVCAR-3; read-out: log (GI50) (M) (converted)) was 2.51e-07 M, the GI50 (RPMI-8226) was 0.2 µM and the CC50 (RPMI-8226; [2]) was over 100 µM. The GI50 (NCI-H522) was 0.2 µM, the LC50 (NCI-H522) was over 100 µM and the specificity (panel of protein kinases; CDK5 and CDK2 versus a panel of protein kinases) was “highly specific for CDK5 and CDK2”. The “inhibition against a panel of protein kinases” value (panel of protein kinases; panel of protein kinases) was “little inhibition”, the GI50 (SNB-75) was 2 µM and the CC50 (SNB-75; [2]) was over 100 µM. The GI50 (MALME-3M) was 0.501 µM, the CC50 (MALME-3M; [2]) was over 100 µM and the GI50 (SN12C) was 0.251 µM. For the same compound, the CC50 (SN12C; [2]) was over 100 µM, the GI50 (HOP-92) was 0.398 µM and the CC50 (HOP-92; [2]) was over 100 µM. For the same compound, the GI50 (SK-MEL-5) was 0.1 µM, the CC50 (SK-MEL-5; [2]) was 20 µM and the GI50 (TK-10) was 2 µM. It also gave an LC50 (TK-10) of over 100 µM.
